Data set [1] can be described thus: Dissolution and re-precipitation time in pH 6.5 buffer (simulated fasting small intestine). The data set is classed as physicochemical. The settings on record: for Dissolving time / Precipitate time: 5 mg crystal form in 80 mL pH 6.5 buffer solution; for Dissolving time: shaken slightly; for Precipitate time: time of re-precipitation, hydrochloride. The protocol:
In Example 1, precipitation time for Form A and Forms I and II were compared under pH of simulated intestinal fluid. Take 5 mg of crystal forms A, I and II, and put them in 100-ml glass sample bottles, add 80 mL of pH 6.5 buffer solution (pH value of simulating fasting small intestine), and shake them slightly to observe precipitate. Dissolution status and time of re-precipitation were recorded.

Data set [2] can be described thus: Powder flowability test (angle of repose). The data set is classed as physicochemical. The note with it: for angle of repose: average of three determinations, α=arctg(H/R), hydrochloride; for flowability compared with forms I and II (in words): conclusion from angle of repose. An excerpt:
Angle of repose is adopted widely to evaluate the powder flowability. When the angle of repose of the powder is less than or equal to 30 degrees, it means the flowability of this powder is good. While in case, 40 degrees or less of the powder angle of repose, this powder can satisfy the demand for fluidity in the production process. When the angle of repose of the powder is more than 40 degrees, it means the very poor flowability of the drug powder which may cause the troubles above mentioned during the drug manufacturing process.
Powder flowability test: A petri dish with a diameter of 7 cm in the bottom plate is used. Two glass funnels are staggered on top of each other and fixed on an iron stand. The distance between the lower funnel outlet and the bottom plate is between 3.5-6.0 cm. Take some cariprazine hydrochlorides in different crystal forms, and slowly add them from the upper funnel, so that the sample gradually accumulates on the chassis through the buffer of the two funnels to form a cone until the highest cone is obtained. Measure the height H of the cone. Determine three times for each sample, take the average, and calculate the angle of repose as follows: α=arctg(H/R) Among them, α is the angle of repose and R is the radius of the chassis.
When the angle of repose of the powder is less than or equal to 30 degrees, it means flowability of powder is good. The flowability requirement in the manufactured process can be satisfied when it is less than or equal to 40 degrees. If the angle of repose of powder is more than 40 degrees, it means flowability is poor.

The subject of a further data set is bipolar disorder. The settings on record: cited from earlier work.
A further data set has as its system schizophrenia. The settings on record: cited from earlier work.

Structures can show the parent of a compound that is named as a salt.

Regarding `CN(C)C(=O)N[C@H]1CC[C@H](CCN2CCN(c3cccc(Cl)c3Cl)CC2)CC1` [Form II, cariprazine hydrochloride], in data set [1], the Dissolving time entry is “immediately” and the Precipitate time is reported as 1 min. In addition, the angle of repose in data set [2] was determined as 40°.

As to `CN(C)C(=O)N[C@H]1CC[C@H](CCN2CCN(c3cccc(Cl)c3Cl)CC2)CC1` [Form I, cariprazine hydrochloride], in data set [1], the Dissolving time result was “immediately” and the Precipitate time was 1 min. The angle of repose in data set [2] is given as 40°.

For `CN(C)C(=O)N[C@H]1CC[C@H](CCN2CCN(c3cccc(Cl)c3Cl)CC2)CC1` [Form B, trans-N-{4-[2-[4-(2,3-dichlorophenyl)-piperazine-1-yl]-ethyl]-cyclohexyl}-N′,N′-dimethylurea hydrochloride], in data set [2], the angle of repose was found to be 28°; the “flowability compared with forms I and II (in words)” value is on record as “significantly improve the flowability”.

For `CN(C)C(=O)N[C@H]1CC[C@H](CCN2CCN(c3cccc(Cl)c3Cl)CC2)CC1` [Compound 1, hydrochloride], the “symptoms of bipolar disorder compared with placebo group” value in the data set on bipolar disorder (6-week clinical trial, 1037 subjects) is reported as “significantly reduce the symptoms of bipolar disorder”. Besides, in the data set with bipolar disorder (clinical trials), the “most common adverse effects in the treatment of bipolar disorder” value is “extrapyramidal symptoms, manifested by inability to sit still, indigestion, vomiting, lethargy, and restlessness”. The “most common adverse effects in the treatment of schizophrenia” value with schizophrenia (clinical trials) is “extrapyramidal symptoms, including tremor, speech insufficiency, and dystonia”. In addition, in the data set on schizophrenia (six-week clinical trial, 1,754 participants, according to the FDA), the “symptoms of schizophrenia compared to placebo group” value is listed as “significantly reduces the symptoms of schizophrenia”.

For the molecule `CN(C)C(=O)N[C@H]1CC[C@H](CCN2CCN(c3cccc(Cl)c3Cl)CC2)CC1` [Form A, trans-N-{4-[2-[4-(2,3-dichlorophenyl)-piperazine-1-yl]-ethyl]-cyclohexyl}-N′,N′-dimethylurea hydrochloride], in data set [1], the Dissolving time result is “immediately” and the Precipitate time is reported as 10 min. Besides, the “maintenance of dissolved state under near-neutral conditions compared to Forms I and II (in words)” value in data set [1] (pH 6.5 buffer) is on record as “significantly prolonged maintenance”. Moreover, in data set [2], the angle of repose is 35°; the “flowability compared with forms I and II (in words)” value is “significantly improve the flowability”.

For `CN(C)C(=O)N[C@H]1CC[C@H](CCN2CCN(c3cccc(Cl)c3Cl)CC2)CC1` [Form C, trans-N-{4-[2-[4-(2,3-dichlorophenyl)-piperazine-1-yl]-ethyl]-cyclohexyl}-N′,N′-dimethylurea hydrochloride], in data set [2], the angle of repose was 31°; the “flowability compared with forms I and II (in words)” value is on record as “significantly improve the flowability”.

(Values after patent US11319293B2, “Polymorps of cariprazine hydrochloride and preparation method thereof and use of same” (SHANGHAI BEGREAT PHARMATECH, priority 2018, dated 2022).)
